DBAASP
Converted amounts (≈) assume the structure as drawn. “And” between values parts separate entries of the source, which are not always exact repeats. Equal values may be shown once. Values belong to the compound of their own block, whether it stands above or below them.

Key:
Assay in all cases: ≥ marks a high value that may be exact or a test limit, other limits are often not marked, values filed in µg/mL are converted to µM
[1] = tested on: Cryptococcus neoformans L26
[2] = tested on: Trichophyton mentagrophytes
Candida albicans 01U = tested on: Candida albicans 01U
[3] = tested on: Cryptococcus neoformans L30
Candida parapsilosis = tested on: Candida parapsilosis
Trichophyton rubrum = tested on: Trichophyton rubrum
Candida albicans 38U = tested on: Candida albicans 38U
Staphylococcus aureus = tested on: Staphylococcus aureus
[4] = tested on: Pseudomonas syringae pv. Maculicola
Fusarium oxysporum L = tested on: Fusarium oxysporum L
[5] = tested on: Xanthomonas vesicatoria B229RI
[6] = tested on: Clavibacter michiganensis subsp. michiganensis
Alternaria dauci = tested on: Alternaria dauci
Fusarium oxysporum M = tested on: Fusarium oxysporum M
[7] = tested on: Pseudomonas syringae pv. Valerianella
Alternaria brassicicola = tested on: Alternaria brassicicola
Fusarium oxysporum = tested on: Fusarium oxysporum
Escherichia coli D22 = tested on: Escherichia coli D22
[8] = tested on: Xanthomonas campestris pv. campestris
Fusarium haematococcum = tested on: Fusarium haematococcum
Pseudomonas syringae = tested on: Pseudomonas syringae
Aerococcus viridans = tested on: Aerococcus viridans
Botrytis cinerea = tested on: Botrytis cinerea
[9] = tested on: Xanthomonas vesicatoria 687.3
Bacillus subtilis = tested on: Bacillus subtilis
[10] = tested on: Pseudomonas syringae pv. syringae
Stemphylium sp. = tested on: Stemphylium sp.
[11] = tested on: Pseudomonas syringae pv. Pisi
Escherichia coli 1106 = tested on: Escherichia coli 1106
Trichoderma viride = tested on: Trichoderma viride
Neurospora crassa = tested on: Neurospora crassa
[12] = tested on: Pseudomonas syringae pv. phaseolicola
Micrococcus luteus = tested on: Micrococcus luteus
Aspergillus fumigatus = tested on: Aspergillus fumigatus
Salmonella typhimurium = tested on: Salmonella typhimurium
Escherichia coli D31 = tested on: Escherichia coli D31
Fusarium culmorum = tested on: Fusarium culmorum
[13] = tested on: Klebsiella pneumoniae ATCC 700603
[14] = tested on: Staphylococcus aureus ATCC 29313
[15] = tested on: Pseudomonas aeruginosa PAO1
[16] = tested on: Salmonella enterica subsp. enterica serovar Typhimurium ATCC 14028
[17] = tested on: Escherichia coli ATCC 25922
[18] = tested on: Pseudomonas aeruginosa ATCC 27853
[19] = tested on: Pseudomonas aeruginosa Pa4-SA2
[20] = tested on: Pseudomonas aeruginosa PA006
[21] = tested on: Pseudomonas aeruginosa Pa1-SA2
[22] = tested on: Staphylococcus aureus MRSA-16
[23] = tested on: Staphylococcus aureus ATCC 25923
[24] = tested on: Staphylococcus aureus MRSA-G

MIC [1]: ≥ 173 µM | MIC [2]: ≥ 173 µM | MIC (Candida albicans 01U): 21.6 µM (≈ 32 µg/mL) | MIC [3]: ≥ 173 µM | MIC (Candida parapsilosis): ≥ 173 µM | MIC (Trichophyton rubrum): 21.6 µM (≈ 32 µg/mL) | MIC (Candida albicans 38U): 21.6 µM (≈ 32 µg/mL)
SMILES: CC[C@H](C)[C@H](NC(=O)[C@H](CC(C)C)NC(=O)[C@H](CCC(=O)O)NC(=O)[C@H](CO)NC(=O)[C@H](CCCN=C(N)N)NC(=O)[C@@H](N)CO)C(=O)N[C@H](C(=O)N[C@@H](Cc1cnc[nH]1)C(=O)N[C@@H](CCC(N)=O)C(=O)N[C@@H](CCCN=C(N)N)C(=O)N[C@@H](CCSC)C(=O)N[C@@H](CCCCN)C(N)=O)C(C)C [SRSELIVHQRMK]

SMILES: CC[C@H](C)[C@@H]1NC(=O)[C@H](CCCCN)NC(=O)[C@H]([C@@H](C)CC)NC(=O)[C@H](CCC(N)=O)NC(=O)[C@H](CCCN=C(N)N)NC(=O)[C@@H](NC(=O)[C@@H](NC(=O)[C@H](CO)NC(=O)[C@@H](N)CCCN=C(N)N)C(C)C)CSSC[C@@H](C(=O)N[C@H](C(=O)N[C@@H](CC(N)=O)C(=O)N[C@@H](CCCN=C(N)N)C(=O)N2CCC[C@H]2C(=O)N[C@@H](Cc2ccc(O)cc2)C(=O)O)[C@@H](C)O)NC(=O)[C@H](CCCCN)NC(=O)[C@H](Cc2ccc(O)cc2)NC(=O)[C@H](Cc2ccc(O)cc2)NC(=O)[C@@H]2CSSC[C@H](NC1=O)C(=O)N[C@@H](CCCN=C(N)N)C(=O)N[C@@H](CCCN=C(N)N)C(=O)N[C@@H](CCCN=C(N)N)C(=O)NCC(=O)NCC(=O)N2 [RSVCRQIKICRRRGGCYYKCTNRPY]
MIC (Staphylococcus aureus): 21.2 µM (≈ 65.3 µg/mL) | MIC [4]: 4.24 µM (≈ 13.1 µg/mL) | MIC (Fusarium oxysporum L): 2.83 µM (≈ 8.7 µg/mL) | MIC [5]: 2.12 µM (≈ 6.53 µg/mL) | MIC [6]: 9.49 µM (≈ 29.2 µg/mL) | MIC (Alternaria dauci): 11.3 µM (≈ 34.8 µg/mL) | MIC (Fusarium oxysporum M): 2.83 µM (≈ 8.7 µg/mL) | MIC [7]: 18.2 µM (≈ 55.9 µg/mL) | MIC (Alternaria brassicicola): 4.24 µM (≈ 13.1 µg/mL) | MIC (Fusarium oxysporum): 8.49 µM (≈ 26.1 µg/mL) | MIC (Escherichia coli D22): 30 µM (≈ 92.3 µg/mL) | MIC [8]: 4.24 µM (≈ 13.1 µg/mL) | MIC (Fusarium haematococcum): 8.49 µM (≈ 26.1 µg/mL) | MIC (Pseudomonas syringae): 2.12 µM (≈ 6.53 µg/mL) | MIC (Aerococcus viridans): 0.424 µM (≈ 1.31 µg/mL) | MIC (Botrytis cinerea): 8.49 µM (≈ 26.1 µg/mL) | MIC [9]: 2.12 µM (≈ 6.53 µg/mL) | MIC (Bacillus subtilis): 2.12 µM (≈ 6.53 µg/mL) | MIC [10]: 18.2 µM (≈ 55.9 µg/mL) | MIC (Stemphylium sp.): 5.66 µM (≈ 17.4 µg/mL) | MIC [11]: 9.49 µM (≈ 29.2 µg/mL) | MIC (Escherichia coli 1106): 9.49 µM (≈ 29.2 µg/mL) | MIC (Trichoderma viride): 8.49 µM (≈ 26.1 µg/mL) | MIC (Neurospora crassa): 8.49 µM (≈ 26.1 µg/mL) | MIC [12]: 2.12 µM (≈ 6.53 µg/mL) | MIC (Micrococcus luteus): 0.949 µM (≈ 2.92 µg/mL) | MIC (Aspergillus fumigatus): ≥ 35.4 µM | MIC (Salmonella typhimurium): 4.24 µM (≈ 13.1 µg/mL) | MIC (Escherichia coli D31): 4.24 µM (≈ 13.1 µg/mL) | MIC (Fusarium culmorum): 4.24 µM (≈ 13.1 µg/mL)

MIC [13]: > 300 µM | MIC [15]: 192 µM (≈ 512 µg/mL) | MIC [16]: > 300 µM | MIC [17]: 300 µM (≈ 800 µg/mL) | MIC [18]: > 192 µM | MIC [19]: ≥ 48 µM | MIC [20]: 12 µM (≈ 32 µg/mL) | MIC [21]: ≥ 96 µM
SMILES: CC[C@H](C)[C@H](NC(=O)[C@H](CCCCN)NC(=O)CNC(=O)[C@H](CCSC)NC(=O)[C@H](C)NC(=O)[C@H](Cc1cnc[nH]1)NC(=O)[C@H](C)NC(=O)[C@@H](NC(=O)[C@H](CC(C)C)NC(=O)[C@H](CCC(N)=O)NC(=O)[C@H](CCCN=C(N)N)NC(=O)CNC(=O)[C@H](C)NC(=O)[C@H](CC(=O)O)NC(=O)[C@H](CCCCN)NC(=O)[C@@H](NC(=O)[C@@H](NC(=O)[C@H](CC(=O)O)NC(=O)[C@H](Cc1ccccc1)NC(=O)[C@@H](NC(=O)CN)C(C)C)[C@@H](C)CC)[C@@H](C)CC)C(C)C)C(=O)N[C@@H](C)C(=O)N[C@@H](CCC(=O)O)C(=O)N[C@@H](CCCCN)C(=O)N[C@H](C(N)=O)C(C)C [GVFDIIKDAGRQLVAHAMGKIAEKV]
MIC [14]: ≥ 300 µM

MIC [22]: 4 µM (≈ 9.95 µg/mL) | MIC [17]: 2 µM and > 1 µM | MIC [23]: 4 µM and > 2 µM | MIC [24]: 4 µM (≈ 9.95 µg/mL)
SMILES: CC[C@H](C)[C@H](NC(=O)[C@H](C)NC(=O)[C@H](CCCCN)NC(=O)[C@@H](NC(=O)CNC(=O)CNC(=O)[C@H](Cc1c[nH]c2ccccc12)NC(=O)[C@H](Cc1ccccc1)NC(=O)[C@H](CCCCN)NC(=O)[C@H](CCCCN)NC(=O)[C@H](Cc1ccccc1)NC(=O)[C@@H](N)Cc1ccccc1)C(C)C)C(=O)N[C@@H](Cc1ccccc1)C(=O)N[C@@H](CCCCN)C(=O)NCC(=O)N[C@@H](C)C(=O)N[C@@H](CCCN=C(N)N)C(=O)N[C@@H](CCCCN)C(=O)NCC(=O)N[C@@H](Cc1c[nH]c2ccccc12)C(=O)N[C@@H](CCCCN)C(=O)O [FFKKFWGGVKAIFKGARKGWK]
